# Test results from PMC4266796 (International Journal for Parasitology: Drugs and Drug …, 2014).
# “Also recorded” adds a separate entry of the source. Where a name gives a salt, the structure may show the parent alone. Read-outs that look alike come from different tables or passages of the source.
# How the values were obtained:
# [1] = in vitro; conditions: Aedes albopictus
# [2] = system: O gutturosa Wolbachia; assay type: cell-based, Wolbachia of Onchocerca gutturosa; conditions: for Reduction in Wolbachia (wsp:gst log drop from vehicle controls): 5 days; for Effect on Wolbachia load (in words): 12.5 to 0.195 μM
# [3] = system: Wolbachia of L. sigmodontis; experiment: animal or person; assay type: in vivo, Wolbachia of Litomosoides sigmodontis in BALB/c mice; conditions: for log reduction at 25 mg/kg/day: ip, 240 h, read-out: wLs ftsz log drop in vivo
# [4] = system: W. pipientis wAlbB in C6/36 (wAlbB) cells; experiment: microbe, parasite or virus in culture; assay type: cell-based, Wolbachia pipientis; conditions: for log reduction at 10 µM: Wolbachia pipientis, C6/36, 216 h, read-out: 16S log drop, 10 μM, 9 days, single agent screening; for Dose response behaviour in titration series: 6 doses from 10 to 0.3 μM
# [5] = system: L. sigmodontis; experiment: In vivo L. sigmodontis screening assay, worm length; parameters: species or system Litomosoides sigmodontis in BALB/c mice
# [6] = system: C6/36 (wAlbB) cells; conditions: 10 μM, luminescence vs vehicle-treated control
# [7] = system: Wolbachia; conditions: ref Hermans et al., 2001; cited from earlier work
# [8] = reduced regimen, 25 MKD for 10 days
smiles,measurement,setting,value
CC(=O)Oc1cccc2c1C(=O)c1c(OC(C)=O)cc(C(=O)O)cc1C2=O [Diacerein],cytotoxicity at 10 µM,[1],0%
C[C@H]1c2cccc(O)c2C(=O)C2=C(O)[C@]3(O)C(=O)C(C(N)=O)=C(O)[C@@H](N(C)C)[C@@H]3[C@@H](O)[C@@H]21 [Doxycycline],Reduction in Wolbachia (wsp:gst log drop from vehicle controls),[2]; 0.195 μM,0.77 log
same,Reduction in Wolbachia (wsp:gst log drop from vehicle controls),[2]; 0.781 μM,0.14 log
same,Reduction in Wolbachia (wsp:gst log drop from vehicle controls),[2]; 3.125 μM,0.21 log
same,Reduction in Wolbachia (wsp:gst log drop from vehicle controls),[2]; 12.5 μM,0.80 log
same,Effect on Wolbachia load (in words),[2],reduced the Wolbachia load
same,log reduction at 25 mg/kg/day,[3],2.2
same,cytotoxicity at 7 µM,[1],0%
same,16S log drop in vitro,"[4]; doxycycline gold standard, 7 μM, 9 days",1.6 log
CC1(C)NC(=O)N(c2ccc([N+](=O)[O-])c(C(F)(F)F)c2)C1=O [Nilutamide],cytotoxicity at 10 µM,[1],0.01%
CCC1(C)CC(=O)NC1=O (centres unmarked) [Ethosuximide],log reduction at 10 µM,[4],≥ 1.6
COc1ccc2c(c1)c(CC(=O)O)c(C)n2C(=O)c1ccc(Cl)cc1 [Indomethacin],cytotoxicity at 10 µM,[1],0%
same,log reduction at 10 µM,[4],≥ 1.6
CO[C@H]1/C=C/O[C@@]2(C)Oc3c(C)c(O)c4c(O)c(c(/C=N/N5CCN(C6CCCC6)CC5)c(O)c4c3C2=O)NC(=O)/C(C)=C\C=C\[C@H](C)[C@H](O)[C@@H](C)[C@@H](O)[C@@H](C)[C@H](OC(C)=O)[C@@H]1C [Rifapentine],Effect on worm length (in words),[5]; standard doses tested,significantly reduced
same,Reduction in Wolbachia (wsp:gst log drop from vehicle controls),[2]; 0.195 μM,0.99 log
same,Reduction in Wolbachia (wsp:gst log drop from vehicle controls),[2]; 0.781 μM,0.78 log
same,Reduction in Wolbachia (wsp:gst log drop from vehicle controls),[2]; 3.125 μM,0.77 log
same,Reduction in Wolbachia (wsp:gst log drop from vehicle controls),[2]; 12.5 μM,1.04 log
same,Effect on Wolbachia load (in words),[2],greatly reduced the Wolbachia load at all concentrations tested
same,Activity in the L. sigmodontis mouse model (in words),"[3]; mouse, in vivo",demonstrated activity
same,Effect on Wolbachia load (in words),[3]; standard doses tested,significantly reduced
same,cytotoxicity at 10 µM,[1],20%
same,log reduction at 10 µM,[4],≥ 1.6
CCCCC(CC)COC(=O)CC(C(=O)OCC(CC)CCCC)S(=O)(=O)[O-].CCCCC(CC)COC(=O)CC(C(=O)OCC(CC)CCCC)S(=O)(=O)[O-].[Ca+2] (centres unmarked) [Docusate Calcium],Ls length reduction in vivo (%),[5]; 200 MKD IP for 14 days,20.0%
same,wLs ftsz log drop in vivo,[3]; 200 MKD IP for 14 days,1.0 log
same,Cytotoxicity (%),[6],0%
CN(C)c1ccc(O)c2c1C[C@H]1C[C@H]3[C@H](N(C)C)C(O)=C(C(N)=O)C(=O)[C@@]3(O)C(O)=C1C2=O [Minocycline],Effect on worm length (in words),[5]; standard doses tested,significantly reduced
same,log reduction at 25 mg/kg/day,[3],3.78
same,Reduction in Wolbachia load compared with the same dose/regimen of doxycycline,"[3]; methacycline 50 MKD, minocycline 25 MKD for 10 days, P < 0.05",significantly greater
same,Activity in the L. sigmodontis mouse model (in words),"[3]; mouse, in vivo",demonstrated activity
same,Effect on Wolbachia load (in words),[3]; [8],significantly reduced
same,Effect on Wolbachia load (in words),[3]; standard doses tested,significantly reduced
same,cytotoxicity at 10 µM,[1],0%
same,log reduction at 10 µM,[4],≥ 1.6
CCOC(=O)N1CCC(=C2c3ccc(Cl)cc3CCc3cccnc32)CC1 [Loratadine],Effect on worm length (in words),[5]; standard doses tested,no effect
same,cytotoxicity at 10 µM,[1],20.7%
C[C@H]1COc2c(N3CCN(C)CC3)c(F)cc3c(=O)c(C(=O)O)cn1c23 [levofloxacin],Activity in the L. sigmodontis mouse model (in words),"[3]; mouse, in vivo",inactive
[H]/N=C(/N)NS(=O)(=O)c1ccc(N)cc1 [Sulfaguanidine],Dose response behaviour in titration series,[4],active at all tested concentrations to the same extent
COc1cc(/C=C/C(=O)CC(=O)/C=C/c2ccc(O)c(OC)c2)ccc1O [Curcumin],cytotoxicity at 10 µM,[1],0%
same,Dose response behaviour in titration series,[4],activity only at the highest concentration
CCOc1ccc2nc(S(N)(=O)=O)sc2c1 [Ethoxzolamide],cytotoxicity at 10 µM,[1],19%
NC[C@@H]1O[C@H](O[C@H]2[C@@H](O)[C@H](O[C@@H]3[C@@H](O)[C@H](N)C[C@H](N)[C@H]3O[C@H]3O[C@H](CO)[C@@H](O)[C@H](O)[C@H]3N)O[C@@H]2CO)[C@H](N)[C@@H](O)[C@@H]1O [Paromomycin sulfate],cytotoxicity at 10 µM,[1],0%
same,Dose response behaviour in titration series,[4],showed a dose response
same,log reduction at 10 µM,[4],≥ 1.6
CO[C@@H]1[C@@H](O[C@@H]2O[C@H](C)[C@@H](O[C@H]3C[C@@](C)(O)[C@@H](OC(=O)CC(C)C)[C@H](C)O3)[C@H](N(C)C)[C@H]2O)[C@@H](CC=O)C[C@@H](C)[C@@H](O)/C=C/C=C/C[C@@H](C)OC(=O)C[C@H]1O [Kitasamycin],log reduction at 10 µM,[4],≥ 1.6
O=C(O)c1cn(C2CC2)c2cc(N3CCNCC3)c(F)cc2c1=O [Ciprofloxacin hydrochloride],Effect on worm length (in words),[5]; standard doses tested,did not reduce
same,cytotoxicity at 10 µM,[1],0%
same,Activity in other cell-based Wolbachia assays,[7],no activity
C[C@@H]1CN(c2c(F)c(N)c3c(=O)c(C(=O)O)cn(C4CC4)c3c2F)C[C@H](C)N1 [Sparfloxacin],Effect on worm length (in words),[5]; [8],did not significantly affect
same,Effect on worm length (in words),[5]; standard doses tested,significantly reduced
same,log reduction at 25 mg/kg/day,[3],0.6
same,Activity in the L. sigmodontis mouse model (in words),"[3]; mouse, in vivo",demonstrated activity; also recorded: active
same,Effect on Wolbachia load (in words),[3]; [8],did not significantly affect
same,Effect on Wolbachia load (in words),[3]; standard doses tested,significantly reduced
same,cytotoxicity at 10 µM,[1],0%
C=C1c2cccc(O)c2C(=O)C2=C(O)[C@]3(O)C(=O)C(C(N)=O)=C(O)[C@@H](N(C)C)[C@@H]3[C@@H](O)[C@H]12 [Methacycline hydrochloride],cytotoxicity at 10 µM,[1],0%
same,Dose response behaviour in titration series,[4],active at all tested concentrations to the same extent
same,log reduction at 10 µM,[4],≥ 1.6
Nc1nc(NC2CC2)c2ncn([C@H]3C=C[C@@H](CO)C3)c2n1 [Abacavir Sulfate],cytotoxicity at 10 µM,[1],0%
COc1c(N2C[C@@H]3CCCN[C@@H]3C2)c(F)cc2c(=O)c(C(=O)O)cn(C3CC3)c12 [Moxifloxacin],Effect on Wolbachia load (in words),[2],greatly reduced the Wolbachia load at all concentrations tested
same,Activity in the L. sigmodontis mouse model (in words),[3]; levofloxacin and moxifloxacin: data not shown / unpublished observations,active
NNC(=O)c1ccncc1 [Isoniazid],cytotoxicity at 10 µM,[1],0.3%
